Measured values reported in PubChem BioAssay AID1963874 (Molecular Pharmacology Branch, DTP, NCI, 2024).

Test system: 253994-281-T-J1-PDC KRAS-mutant spheroids with HUVEC/MSC, viability
Experiment: Anticancer human tumor 253994-281-T-J1-PDC patient-derived colorectal carcinoma cell line growth inhibition [KRAS2]
Conditions: for IC50: curve of first compound; for viability, T/C: stronger effect = lower value
How it was run: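 KRAS-mutant tumor cells were grown as spheroids with HUVEC endothelial cells and human MSCs as stroma. Targeted agents were tested alone and with KRAS pathway inhibitors. Doses started at or near clinical Cmax, or 10 microM, descending half-log.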

[1] = second compound 0.0316 µM, first compound 0.0316 µM
[2] = second compound 0.0316 µM, first compound 0.1 µM
[3] = second compound 0.0316 µM, first compound 0.316 µM
[4] = second compound 0.0316 µM, first compound 1 µM
[5] = second compound 0.0316 µM, first compound 3.16 µM
[6] = second compound 0.1 µM, first compound 0.01 µM
[7] = second compound 0.1 µM, first compound 0.0316 µM
[8] = second compound 0.1 µM, first compound 0.1 µM
[9] = second compound 0.1 µM, first compound 0.316 µM
[10] = second compound 0.1 µM, first compound 1 µM
[11] = second compound 0.1 µM, first compound 3.16 µM
[12] = second compound 0.316 µM, first compound 0.01 µM
[13] = second compound 0.316 µM, first compound 0.0316 µM
[14] = second compound 0.316 µM, first compound 0.1 µM
[15] = second compound 0.316 µM, first compound 0.316 µM
[16] = second compound 0.316 µM, first compound 1 µM
[17] = second compound 0.316 µM, first compound 3.16 µM
[18] = second compound 1 µM, first compound 0.01 µM
[19] = second compound 1 µM, first compound 0.0316 µM
[20] = second compound 1 µM, first compound 0.1 µM
[21] = second compound 1 µM, first compound 0.316 µM
[22] = second compound 1 µM, first compound 1 µM
[23] = second compound 1 µM, first compound 3.16 µM
[24] = second compound 3.16 µM, first compound 0.01 µM
[25] = second compound 3.16 µM, first compound 0.0316 µM
[26] = second compound 3.16 µM, first compound 0.1 µM
[27] = second compound 3.16 µM, first compound 0.316 µM
[28] = second compound 3.16 µM, first compound 1 µM
[29] = second compound 3.16 µM, first compound 3.16 µM
[30] = second compound 0.0316 µM, first compound 10 µM
[31] = second compound 0.1 µM, first compound 10 µM
[32] = second compound 0.316 µM, first compound 10 µM
[33] = second compound 1 µM, first compound 10 µM
[34] = second compound 3.16 µM, first compound 10 µM
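Also: spheroids exposed to agents for seven days before readout.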
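For viability, T/C in this document: percent of DMSO vehicle control viability.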

Structure (SMILES): CC1COCCN1c1cc(-c2ccnn2C)c2ccnc(-c3ccn[nH]3)c2n1 (stereo not given) + C=CC(=O)N1CCN(c2nc(OCC3CCCN3C)nc3c2CCN(c2cccc4cccc(C)c24)C3)CC1CC#N
- IC50 (second compound 0.0316 µM): > 3.16 µM
- IC50 (second compound 0.1 µM): > 3.16 µM
- IC50 (second compound 0.316 µM): > 3.16 µM
- IC50 (second compound 1 µM): > 3.16 µM
- IC50 (second compound 3.16 µM): 0.129 µM
- viability, T/C (second compound 0.0316 µM, first compound 0.01 µM): 115%
- viability, T/C [1]: 101%
- viability, T/C [2]: 87.1%
- viability, T/C [3]: 67.6%
- viability, T/C [4]: 60.5%
- viability, T/C [5]: 64.5%
- viability, T/C [6]: 94.1%
- viability, T/C [7]: 93.1%
- viability, T/C [8]: 90.7%
- viability, T/C [9]: 59.7%
- viability, T/C [10]: 66.9%
- viability, T/C [11]: 60.6%
- viability, T/C [12]: 117%
- viability, T/C [13]: 93%
- viability, T/C [14]: 83%
- viability, T/C [15]: 53.8%
- viability, T/C [16]: 55.7%
- viability, T/C [17]: 62.9%
- viability, T/C [18]: 101%
- viability, T/C [19]: 94.4%
- viability, T/C [20]: 75.5%
- viability, T/C [21]: 48.8%
- viability, T/C [22]: 51%
- viability, T/C [23]: 59.2%
- viability, T/C [24]: 80.2%
- viability, T/C [25]: 90%
- viability, T/C [26]: 53.3%
- viability, T/C [27]: 30.6%
- viability, T/C [28]: 37.8%
- viability, T/C [29]: 47.8%

Structure (SMILES): CC1OCC2(CCN(c3cnc(Sc4ccnc(N)c4Cl)c(N)n3)CC2)C1N (stereo not given) + C=CC(=O)N1CCN(c2nc(OCC3CCCN3C)nc3c2CCN(c2cccc4cccc(C)c24)C3)CC1CC#N
- IC50 (second compound 0.0316 µM): 8.57 µM
- IC50 (second compound 0.1 µM): > 10 µM
- IC50 (second compound 0.316 µM): 6.83 µM
- IC50 (second compound 1 µM): 5.05 µM
- IC50 (second compound 3.16 µM): 0.0824 µM
- viability, T/C [1]: 112%
- viability, T/C [2]: 91.7%
- viability, T/C [3]: 87.5%
- viability, T/C [4]: 81.4%
- viability, T/C [5]: 65.4%
- viability, T/C [30]: 45.3%
- viability, T/C [7]: 87.4%
- viability, T/C [8]: 100%
- viability, T/C [9]: 76.3%
- viability, T/C [10]: 78.5%
- viability, T/C [11]: 66.1%
- viability, T/C [31]: 50.4%
- viability, T/C [13]: 92.3%
- viability, T/C [14]: 100%
- viability, T/C [15]: 84.3%
- viability, T/C [16]: 72.6%
- viability, T/C [17]: 60.9%
- viability, T/C [32]: 44.9%
- viability, T/C [19]: 79.3%
- viability, T/C [20]: 82.3%
- viability, T/C [21]: 76.7%
- viability, T/C [22]: 67.4%
- viability, T/C [23]: 56.5%
- viability, T/C [33]: 41.4%
- viability, T/C [25]: 57.2%
- viability, T/C [26]: 48.5%
- viability, T/C [27]: 39.8%
- viability, T/C [28]: 27%
- viability, T/C [29]: 20.6%
- viability, T/C [34]: 9.67%

Structure (SMILES): Cn1nccc1Nc1nccc(-c2cc3c(s2)C(C)(C)N(CCN2CCOCC2)C3=O)n1 + C=CC(=O)N1CCN(c2nc(OCC3CCCN3C)nc3c2CCN(c2cccc4cccc(C)c24)C3)CC1CC#N
- IC50 (second compound 0.0316 µM): 4.45 µM
- IC50 (second compound 0.1 µM): 2.63 µM
- IC50 (second compound 0.316 µM): 2.15 µM
- IC50 (second compound 1 µM): 3.04 µM
- IC50 (second compound 3.16 µM): 0.181 µM
- viability, T/C [1]: 92.7%
- viability, T/C [2]: 99%
- viability, T/C [3]: 89.1%
- viability, T/C [4]: 72.4%
- viability, T/C [5]: 62.2%
- viability, T/C [30]: 28%
- viability, T/C [7]: 92.3%
- viability, T/C [8]: 96.3%
- viability, T/C [9]: 88.7%
- viability, T/C [10]: 73.5%
- viability, T/C [11]: 45.6%
- viability, T/C [31]: 29.4%
- viability, T/C [13]: 95.5%
- viability, T/C [14]: 103%
- viability, T/C [15]: 96.7%
- viability, T/C [16]: 67.4%
- viability, T/C [17]: 43.1%
- viability, T/C [32]: 30.4%
- viability, T/C [19]: 107%
- viability, T/C [20]: 98.9%
- viability, T/C [21]: 73.9%
- viability, T/C [22]: 80.3%
- viability, T/C [23]: 44.6%
- viability, T/C [33]: 27.4%
- viability, T/C [25]: 64%
- viability, T/C [26]: 53.6%
- viability, T/C [27]: 45.2%
- viability, T/C [28]: 20.8%
- viability, T/C [29]: 4.92%
- viability, T/C [34]: 1.02%

Structure (SMILES): CC(=O)OC12COC1CC(O)C1(C)C(=O)C(O)C3=C(C)C(OC(=O)C(O)C(NC(=O)OC(C)(C)C)c4ccccc4)CC(O)(C(OC(=O)c4ccccc4)C21)C3(C)C (stereo not given) + CC1OCC2(CCN(c3cnc(Sc4ccnc(N)c4Cl)c(N)n3)CC2)C1N
- IC50 (second compound 0.1 µM): 0.0204 µM
- IC50 (second compound 0.316 µM): < 0.01 µM
- IC50 (second compound 1 µM): 0.0271 µM
- IC50 (second compound 3.16 µM): < 0.01 µM
- IC50 (second compound 10 µM): < 0.01 µM
- viability, T/C [6]: 68.7%
- viability, T/C [7]: 39.5%
- viability, T/C [8]: 26.3%
- viability, T/C [9]: 23.2%
- viability, T/C [10]: 27.5%
- viability, T/C [11]: 21.8%
- viability, T/C [12]: 48.8%
- viability, T/C [13]: 29.2%
- viability, T/C [14]: 18.4%
- viability, T/C [15]: 19.2%
- viability, T/C [16]: 20.3%
- viability, T/C [17]: 18.1%
- viability, T/C [18]: 92%
- viability, T/C [19]: 42%
- viability, T/C [20]: 31.2%
- viability, T/C [21]: 24%
- viability, T/C [22]: 21%
- viability, T/C [23]: 21.7%
- viability, T/C [24]: 19.8%
- viability, T/C [25]: 18%
- viability, T/C [26]: 11.9%
- viability, T/C [27]: 11.7%
- viability, T/C [28]: 14.8%
- viability, T/C [29]: 12.5%
- viability, T/C (second compound 10 µM, first compound 0.01 µM): 20%
- viability, T/C (second compound 10 µM, first compound 0.0316 µM): 14.4%
- viability, T/C (second compound 10 µM, first compound 0.1 µM): 13.3%
- viability, T/C (second compound 10 µM, first compound 0.316 µM): 12.8%
- viability, T/C (second compound 10 µM, first compound 1 µM): 10.5%
- viability, T/C (second compound 10 µM, first compound 3.16 µM): 11.8%
